Experimental data as given in paper PMC6904568, “Evaluation of binding and inhibition mechanism of dietary phytochemicals with sphingosine kinase 1: Towards targeted anticancer therapy” (Scientific Reports, 2019).
pIC50, pKd: −log10 of the molar value. Where “and” joins values, the source holds several entries; their conditions need not be identical. Identical values can stand only once.

Experiments:
[1] = molecular target: T1, SphK1 (Homo sapiens, UniProt Q9NYA1); test: ATPase inhibition assay (malachite green, BIOMOL Green); type: biochemical; conditions: 2 µM SphK1, 150 µM ATP, 25 °C; read-out: IC50 (50% of ATPase inhibition)
T1 construct: His tag; made in house; host or cells: E. coli BL21-Gold (DE3)
Description: ATPase activity of purified SphK1 was checked by malachite green-based (BIOMOL® Green reagent, Enzo Life sciences) microtitre-plate assay. Fixed (2 µM) amount of protein was incubated with assay buffer (20 mM Tris-HCl, pH 8.0 and 100 mM NaCl) containing 10 mM MgCl2 and increasing concentrations of ATP for 30 minutes at 25 °C. The reaction was terminated by the addition of malachite green reagent followed by incubation for 20 minutes for colour development. The absorbance of each well was measured at 620 nm on a multiplate ELISA reader. Standard phosphate curve was prepared as described by manufacturer’s protocol and used to quantity the amount of free inorganic released from ATP by kinase activity. Thereafter, ATPase inhibition assay for SphK1 was performed in the presence of compounds. Firstly, Protein (2 µM) was pre-incubated with increasing concentrations of ligand at room temperature for 60 minutes in 96-well plate. 10 mM MgCl2 and 150 µM freshly prepared ATP was then added to the reaction mixture and incubated for 30 minutes at 25 °C. To terminate the reaction, BIOMOL® reagent was added and incubated for 20 minutes followed by absorbance measurement at 620 nm. The amount of free inorganic released was determined with the help of standard phosphate curve as described. All the measurements were performed in triplicates.

[2] = molecular target: T1, SphK1; test: Fluorescence binding studies (Trp quenching, modified Stern-Volmer); conditions: for Binding constant Ka: fluorescence quenching, 25 °C, 4 µM SphK1; for pKd: from fluorescence binding constant, read-out: Dissociation constant KD
Description: Fluorescence quenching experiments were carried out on Jasco spectroflourimeter (FP-6200) using 5 mm quartz cuvette. The temperature was maintained at 25 ± 0.1 °C by external thermostated peltier device. Stock solution of ligands was prepared in DMSO and diluted to a working concentration of 50 µM in Tris buffer just prior to taking measurements. Protein solution (4 µM) was titrated with increasing concentrations of ligand and the fluorescence emission spectrum was recorded in the range of 300–400 nm by keeping the excitation wavelength constant at 280 nm. The excitation and emission slit widths were kept at 10 nm. The final spectra were obtained by subtracting with the corresponding blank. For data analysis, fluorescence intensity at λmax was plotted against [ligand, μM] and then modified Stern-Volmer equation (Eq. 1) was used to derive binding parameters viz., binding constant (Ka) and number of binding sites (n) per molecule of protein for ligand-SphK1 system.1 log(F0−F/F)=logKa+nlog[Q]
To validate our docking results, the binding affinity of selected natural compounds with SphK1 was calculated using fluorescence measurements. A number of molecular interactions, including formation of an excited charge-transfer complex, intersystem crossing to the triplet state, molecular rearrangements, and ground-state complex formation between the fluorophore and quencher can lead fluorescence quenching. […] 4 µM of SphK1 was titrated by the successive addition of selected natural compounds from a 1.0 mM stock solution of ligands. The intrinsic fluorescence spectra were then collected in the range of 300–400 nm by keeping the excitation wavelength at 280 nm. The concentration of ligands was varied from 0 to 50 µM to obtain the saturation point.

[3] = molecular target: T1, SphK1; test: Isothermal titration calorimetry; type: binding
Description: Binding affinity of SphK1 to quercetin was determined by using VP-ITC microcalorimeter from MicroCal, Inc (GE, MicroCal, USA). Protein sample was prepared by extensively dialyzing it against Tris buffer (20 mM Tris-HCl, pH 8.0 and 100 mM NaCl). Stock solution of compound was diluted in the last dialyzing buffer to avoid any baseline error. Equal amount of DMSO (1.0% v/v) was added to the protein solution to prevent signal stability problems during ITC measurements. 15 µM SphK1, which was kept in the sample cell with an effective volume of 2 ml, was titrated with 750 µM of compound filled in the titration calorimetry syringe. A programmed titration was performed with a first false injection of 2 µl followed by 24 successive injections of 10 µl ligand each at 300 seconds interval. The temperature of the sample and reference cell was isothermally maintained at 25 °C, and the syringe was stirred at 307 rpm during the experiment. Heat of dilution of compound into buffer solution (no protein) was also measured and subtracted from the protein’s titration data. The binding isotherm obtained was fitted with in-built origin ‘binding site’ model to derive the thermodynamic parameters viz., stoichiometry of binding (n), enthalpy change (ΔH) and association constant (Ka).

[4] = system: HepG2 cells; test: Anti-proliferative potential on liver cancer line; type: cell-based; conditions: Homo sapiens, data not shown, read-out: IC50, growth inhibition of cancer cells
[5] = system: HEK293 cells
[6] = system: A549 cells; test: Anti-proliferative potential on lung cancer line; type: cell-based; conditions: Homo sapiens, data not shown, read-out: IC50, growth inhibition of cancer cells
[7] = ITC, 25 °C, single binding site model
[8] = ITC, 25 °C, sequential binding, site 1
[9] = ITC, 25 °C, sequential binding, site 2
[10] = ITC, 25 °C, sequential binding, site 3

T1 sequence (Q9NYA1 whole entry): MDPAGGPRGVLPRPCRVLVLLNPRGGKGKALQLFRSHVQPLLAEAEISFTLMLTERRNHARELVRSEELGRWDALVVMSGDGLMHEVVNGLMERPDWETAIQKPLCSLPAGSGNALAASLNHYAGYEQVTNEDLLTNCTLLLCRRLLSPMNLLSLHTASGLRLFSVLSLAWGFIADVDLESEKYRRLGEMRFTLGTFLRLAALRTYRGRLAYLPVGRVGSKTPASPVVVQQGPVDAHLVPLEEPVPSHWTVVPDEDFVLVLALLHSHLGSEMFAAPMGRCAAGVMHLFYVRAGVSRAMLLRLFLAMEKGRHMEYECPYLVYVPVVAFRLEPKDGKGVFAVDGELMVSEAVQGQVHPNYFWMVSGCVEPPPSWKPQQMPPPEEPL

Structure (SMILES): COc1cc(CNC(=O)CCCC/C=C/C(C)C)ccc1O [Capsaicin, capsaicin]
- pIC50 [1]: ~4.57 and 4.57
- Binding constant Ka [2]: 15300 M⁻¹
- pKd [2]: 4.18
- Association constant Ka [3, 7]: 102000 ± 66200 M⁻¹
- Enthalpy Change ΔH [3, 7]: −1.00 × 10^4 ± 727.6 cal/mol
- ΔS [3, 7]: −10.8 cal/mol/deg
- pKd ([3]; ITC, 25 °C, single binding site model, read-out: Dissociation Constant KD): 5.01

Structure (SMILES): O=c1c(O)c(-c2ccc(O)c(O)c2)oc2cc(O)cc(O)c12 [Quercetin, quercetin]
- pIC50 [4]: 4.31
- pIC50 [1]: ~5.55
- Toxicity towards normal counterparts [5]: did not impart any toxicity
- Binding constant Ka [2]: 438000 M⁻¹
- pKd [2]: 5.64
- pIC50 [6]: 4.25
- pKd [3]: 3.90
- Association constant Ka1 [3, 8]: Ka1 = 5.89 × 10^4 ± 5.0 × 10^3 M^−1
- Enthalpy Change ΔH1 [3, 8]: ΔH1 = −5204 ± 435 cal/mol
- ΔS1 [3, 8]: ΔS1 = 4.37 cal/mol/deg
- pKd ([3]; ITC, 25 °C, sequential binding, site 1, read-out: Dissociation Constant KD1): 4.77
- Association constant Ka2 [3, 9]: Ka2 = 2.36 × 10^5 ± 8.0 × 10^3 M^−1
- Enthalpy Change ΔH2 [3, 9]: ΔH2 = −9883 ± 696 cal/mol
- ΔS2 [3, 9]: ΔS2 = −8.57 cal/mol/deg
- pKd ([3]; ITC, 25 °C, sequential binding, site 2, read-out: Dissociation Constant KD2): 5.38
- Association constant Ka3 [3, 10]: Ka3 = 1.06 × 10^4 ± 4.0 × 10^2 M^−1
- Enthalpy Change ΔH3 [3, 10]: ΔH3 = 3829 ± 2.18 × 10^3 cal/mol
- ΔS3 [3, 10]: ΔS3 = 32.3 cal/mol/deg
- pKd ([3]; ITC, 25 °C, sequential binding, site 3, read-out: Dissociation Constant KD3): 4.03
- ΔS4 ([3]; ITC, 25 °C, sequential binding, site 4): ΔS4 = −294 cal/mol/deg
- pKd ([3]; ITC, 25 °C, sequential binding, site 4, read-out: Dissociation Constant KD4): 4.97
